Laboratory results published in ChEMBL document CHEMBL2413072, “Synthesis and in vitro anticancer studies of novel C-2 arylidene congeners of lantadenes” (2013).

Legend:
Type in all cases: functional
NCI-H226 [1] = test: Growth inhibition of human NCI-H226 cells by sulforhodamine B assay
K562 = test: Growth inhibition of human K562 cells by sulforhodamine B assay
IGROV-1 = test: Growth inhibition of human IGROV1 cells assessed as cell growth at 10^-8 M by sulforhodamine B assay; conditions: read-out: Activity
UACC-62 [2] = test: Growth inhibition of human UACC62 cells assessed as cell growth at 10^-8 M by sulforhodamine B assay; conditions: read-out: Activity
NCI-H522 = test: Growth inhibition of human NCI-H522 cells assessed as cell growth at 10^-8 M by sulforhodamine B assay; conditions: read-out: Activity
NCI-H23 [3] = test: Growth inhibition of human NCI-H23 cells assessed as cell growth at 10^-8 M by sulforhodamine B assay; conditions: read-out: Activity
RPMI-8226 = test: Growth inhibition of human RPMI8226 cells assessed as cell growth at 10^-8 M by sulforhodamine B assay; conditions: read-out: Activity
UO-31 [4] = test: Growth inhibition of human UO31 cells by sulforhodamine B assay
SN12C [5] = test: Growth inhibition of human SN12C cells by sulforhodamine B assay
OVCAR-5 = test: Growth inhibition of human OVCAR5 cells by sulforhodamine B assay
SK-MEL-28 = test: Growth inhibition of human SK-MEL-28 cells by sulforhodamine B assay
M14 = test: Growth inhibition of human M14 cells by sulforhodamine B assay
SK-MEL-2 = test: Growth inhibition of human SK-MEL-2 cells assessed as cell growth at 10^-4 M by sulforhodamine B assay; conditions: read-out: Activity
SNB-19 [6] = test: Growth inhibition of human SNB19 cells assessed as cell growth at 10^-4 M by sulforhodamine B assay; conditions: read-out: Activity
HCT-15 = test: Growth inhibition of human HCT15 cells assessed as cell growth at 10^-4 M by sulforhodamine B assay; conditions: read-out: Activity
NCI-H226 [7] = test: Growth inhibition of human NCI-H226 cells assessed as cell growth at 10^-4 M by sulforhodamine B assay; conditions: read-out: Activity
HOP-92 = test: Growth inhibition of human HOP92 cells assessed as cell growth at 10^-4 M by sulforhodamine B assay; conditions: read-out: Activity
A549 [8] = test: Growth inhibition of human A549/ATCC cells assessed as cell growth at 10^-4 M by sulforhodamine B assay; conditions: read-out: Activity
MDA-MB-468 [9] = test: Growth inhibition of human MDA-MB-468 cells assessed as cell growth at 10^-6 M by sulforhodamine B assay; conditions: read-out: Activity
[10] = Growth inhibition of human Hs 578T cells assessed as cell growth at 10^-6 M by sulforhodamine B assay; conditions: read-out: Activity
UO-31 [11] = test: Growth inhibition of human UO31 cells assessed as cell growth at 10^-6 M by sulforhodamine B assay; conditions: read-out: Activity
[12] = Growth inhibition of human NCI-ADR-RES cells assessed as cell growth at 10^-6 M by sulforhodamine B assay; conditions: read-out: Activity
UACC-62 [13] = test: Growth inhibition of human UACC62 cells assessed as cell growth at 10^-6 M by sulforhodamine B assay; conditions: read-out: Activity
SNB-75 = test: Growth inhibition of human SNB75 cells assessed as cell growth at 10^-6 M by sulforhodamine B assay; conditions: read-out: Activity
SW-620 [14] = test: Growth inhibition of human SW620 cells assessed as cell growth at 10^-6 M by sulforhodamine B assay; conditions: read-out: Activity
NCI-H460 = test: Growth inhibition of human NCI-H460 cells assessed as cell growth at 10^-6 M by sulforhodamine B assay; conditions: read-out: Activity
NCI-H23 [15] = test: Growth inhibition of human NCI-H23 cells assessed as cell growth at 10^-6 M by sulforhodamine B assay; conditions: read-out: Activity
HOP-62 [16] = test: Growth inhibition of human HOP62 cells assessed as cell growth at 10^-6 M by sulforhodamine B assay; conditions: read-out: Activity
A549 [17] = test: Growth inhibition of human A549/ATCC cells assessed as cell growth at 10^-6 M by sulforhodamine B assay; conditions: read-out: Activity
MOLT-4 = test: Growth inhibition of human MOLT4 cells assessed as cell growth at 10^-6 M by sulforhodamine B assay; conditions: read-out: Activity
MDA-MB-231 = test: Growth inhibition of human MDA-MB-231 cells assessed as cell growth at 10^-7 M by sulforhodamine B assay; conditions: read-out: Activity
SNB-19 [18] = test: Growth inhibition of human SNB19 cells assessed as cell growth at 10^-7 M by sulforhodamine B assay; conditions: read-out: Activity
SW-620 [19] = test: Growth inhibition of human SW620 cells assessed as cell growth at 10^-7 M by sulforhodamine B assay; conditions: read-out: Activity
NCI-H322M = test: Growth inhibition of human NCI-H322M cells assessed as cell growth at 10^-7 M by sulforhodamine B assay; conditions: read-out: Activity
NCI-H226 [20] = test: Growth inhibition of human NCI-H226 cells assessed as cell growth at 10^-7 M by sulforhodamine B assay; conditions: read-out: Activity
HOP-62 [21] = test: Growth inhibition of human HOP62 cells assessed as cell growth at 10^-7 M by sulforhodamine B assay; conditions: read-out: Activity
MDA-MB-468 [22] = test: Growth inhibition of human MDA-MB-468 cells assessed as cell growth at 10^-8 M by sulforhodamine B assay; conditions: read-out: Activity
DU-145 = test: Growth inhibition of human DU145 cells assessed as cell growth at 10^-8 M by sulforhodamine B assay; conditions: read-out: Activity
SN12C [23] = test: Growth inhibition of human SN12C cells assessed as cell growth at 10^-8 M by sulforhodamine B assay; conditions: read-out: Activity
A498 = test: Growth inhibition of human A498 cells assessed as cell growth at 10^-8 M by sulforhodamine B assay; conditions: read-out: Activity
[24] = read-out: LC50 (the source's name)
[25] = read-out: pLC50 (the source's name) (converted)

SMILES: C/C=C(/C)C(=O)O[C@@H]1CC(C)(C)C[C@H]2C3=CC[C@@H]4[C@@]5(C)CC[C@H](O)C(C)(C)[C@@H]5CC[C@@]4(C)[C@]3(C)CC[C@@]12C(=O)O [Reduced Lantadene A]
- GI50 (NCI-H226 [1]; read-out: GI50): 1710 nM
- LC50 (NCI-H226 [1]; read-out: LC50): 8.43 µM
- TGI (NCI-H226 [1]; read-out: TGI): 3.79 µM
- GI50 (NCI-H226 [1]; read-out: pGI50 (converted)): 1700 nM
- LC50 (NCI-H226 [1]; read-out: pLC50 (converted)): 8.51 µM
- TGI (NCI-H226 [1]; read-out: pTGI (converted)): 3.8 µM
- GI50 (K562; read-out: GI50): 2640 nM
- LC50 (K562; read-out: LC50): > 100 µM
- TGI (K562; read-out: TGI): 30.4 µM
- GI50 (K562; read-out: pGI50 (converted)): 2630 nM
- LC50 (K562; read-out: pLC50 (converted)): > 100 µM
- TGI (K562; read-out: pTGI (converted)): 30.2 µM
- growth at 0.01 µM (IGROV-1): 109%
- growth at 0.01 µM (UACC-62 [2]): 96%
- growth at 0.01 µM (NCI-H522): 102%
- growth at 0.01 µM (NCI-H23 [3]): 101%
- growth at 0.01 µM (RPMI-8226): 96%
- GI50 (UO-31 [4]; read-out: GI50): 1640 nM
- CC50 (UO-31 [4]; [24]): 5.91 µM
- TGI (UO-31 [4]; read-out: TGI): 3.12 µM
- GI50 (UO-31 [4]; read-out: pGI50 (converted)): 1660 nM
- CC50 (UO-31 [4]; [25]): 5.89 µM
- TGI (UO-31 [4]; read-out: pTGI (converted)): 3.09 µM
- GI50 (SN12C [5]; read-out: GI50): 1630 nM
- CC50 (SN12C [5]; [24]): 7.22 µM
- TGI (SN12C [5]; read-out: TGI): 3.43 µM
- GI50 (SN12C [5]; read-out: pGI50 (converted)): 1620 nM
- CC50 (SN12C [5]; [25]): 7.24 µM
- TGI (SN12C [5]; read-out: pTGI (converted)): 3.47 µM
- GI50 (OVCAR-5; read-out: GI50): 3.38 µM
- CC50 (OVCAR-5; [24]): 45.5 µM
- TGI (OVCAR-5; read-out: TGI): 8.9 µM
- GI50 (OVCAR-5; read-out: pGI50 (converted)): 3.39 µM
- CC50 (OVCAR-5; [25]): 45.7 µM
- TGI (OVCAR-5; read-out: pTGI (converted)): 8.91 µM
- GI50 (SK-MEL-28; read-out: GI50): 1900 nM
- TGI (SK-MEL-28; read-out: TGI): 4.27 µM
- GI50 (SK-MEL-28; read-out: pGI50 (converted)): 1910 nM
- TGI (SK-MEL-28; read-out: pTGI (converted)): 4.27 µM
- GI50 (M14; read-out: GI50): 1810 nM
- TGI (M14; read-out: TGI): 3.92 µM
- GI50 (M14; read-out: pGI50 (converted)): 1820 nM
- TGI (M14; read-out: pTGI (converted)): 3.89 µM
- growth at 100 µM (SK-MEL-2): -71%
- growth at 100 µM (SNB-19 [6]): -40%
- growth at 100 µM (HCT-15): -64%
- growth at 100 µM (NCI-H226 [7]): -73%
- growth at 100 µM (HOP-92): -73%
- growth at 100 µM (A549 [8]): -59%
- growth at 1 µM (MDA-MB-468 [9]): 84%
- growth at 1 µM [10]: 92%
- growth at 1 µM (UO-31 [11]): 89%
- growth at 1 µM [12]: 96%
- growth at 1 µM (UACC-62 [13]): 78%
- growth at 1 µM (SNB-75): 76%
- growth at 1 µM (SW-620 [14]): 90%
- growth at 1 µM (NCI-H460): 89%
- growth at 1 µM (NCI-H23 [15]): 98%
- growth at 1 µM (HOP-62 [16]): 99%
- growth at 1 µM (A549 [17]): 61%
- growth at 1 µM (MOLT-4): 89%
- growth at 0.1 µM (MDA-MB-231): 95%
- growth at 0.1 µM (SNB-19 [18]): 90%
- growth at 0.1 µM (SW-620 [19]): 95%
- growth at 0.1 µM (NCI-H322M): 98%
- growth at 0.1 µM (NCI-H226 [20]): 94%
- growth at 0.1 µM (HOP-62 [21]): 95%
- growth at 0.01 µM (MDA-MB-468 [22]): 93%
- growth at 0.01 µM (DU-145): 113%
- growth at 0.01 µM (SN12C [23]): 96%
- growth at 0.01 µM (A498): 79%
